Assay results: ChEMBL document CHEMBL3639255, “Bivalent diazo bicyclic Smac mimetics and the uses thereof” (2014)

Assays:
[1] = molecular target: Baculoviral IAP repeat-containing protein 3 (Homo sapiens, UniProt Q13489); assay: (§1) Fluorescence Polarization-Based Assays: An in vitro fluorescence polarization (FP) based binding assay was used to test the binding ability of the compounds of the present invention to certain IAP proteins (Nikolovska-Coleska et al., Anal. Biochem. 332:261-73 (2004)). he FP-based assay for XIAP BIR3 protein was described in detail previously (Nikolovska-Coleska et al., Anal. Biochem. 332:261-73 (2004)). Briefly, 5-carboxyfluorescein was coupled to the lysine side chain of a mutated Smac peptide with the sequence (AbuRPFK-Fam) and this fluorescently tagged peptide (named SM5F) was used as the fluorescent tracer in FP-based binding assay to XIAP BIR3.
[2] = molecular target: Baculoviral IAP repeat-containing protein 2 (Homo sapiens, UniProt Q13490); assay: as §1
Baculoviral IAP repeat-containing protein 2, sequence (Q13490 whole entry, looked up, change not shown): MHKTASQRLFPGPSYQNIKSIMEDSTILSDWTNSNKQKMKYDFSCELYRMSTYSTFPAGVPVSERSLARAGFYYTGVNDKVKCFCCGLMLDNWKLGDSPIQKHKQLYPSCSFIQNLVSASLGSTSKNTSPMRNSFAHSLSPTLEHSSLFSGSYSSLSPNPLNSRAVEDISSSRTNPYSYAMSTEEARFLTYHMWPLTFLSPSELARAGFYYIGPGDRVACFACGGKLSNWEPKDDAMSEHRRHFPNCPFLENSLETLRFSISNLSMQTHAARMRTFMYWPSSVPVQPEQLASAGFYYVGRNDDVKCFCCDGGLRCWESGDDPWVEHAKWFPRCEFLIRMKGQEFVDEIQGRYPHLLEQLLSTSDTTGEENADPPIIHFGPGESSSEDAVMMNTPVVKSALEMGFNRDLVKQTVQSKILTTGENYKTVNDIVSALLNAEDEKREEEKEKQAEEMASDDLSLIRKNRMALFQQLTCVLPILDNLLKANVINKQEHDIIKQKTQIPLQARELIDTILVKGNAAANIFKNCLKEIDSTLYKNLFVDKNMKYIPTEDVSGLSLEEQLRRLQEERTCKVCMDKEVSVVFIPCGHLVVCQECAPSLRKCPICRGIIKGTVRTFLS

Baculoviral IAP repeat-containing protein 3, sequence (Q13489 whole entry, looked up, stated change not applied): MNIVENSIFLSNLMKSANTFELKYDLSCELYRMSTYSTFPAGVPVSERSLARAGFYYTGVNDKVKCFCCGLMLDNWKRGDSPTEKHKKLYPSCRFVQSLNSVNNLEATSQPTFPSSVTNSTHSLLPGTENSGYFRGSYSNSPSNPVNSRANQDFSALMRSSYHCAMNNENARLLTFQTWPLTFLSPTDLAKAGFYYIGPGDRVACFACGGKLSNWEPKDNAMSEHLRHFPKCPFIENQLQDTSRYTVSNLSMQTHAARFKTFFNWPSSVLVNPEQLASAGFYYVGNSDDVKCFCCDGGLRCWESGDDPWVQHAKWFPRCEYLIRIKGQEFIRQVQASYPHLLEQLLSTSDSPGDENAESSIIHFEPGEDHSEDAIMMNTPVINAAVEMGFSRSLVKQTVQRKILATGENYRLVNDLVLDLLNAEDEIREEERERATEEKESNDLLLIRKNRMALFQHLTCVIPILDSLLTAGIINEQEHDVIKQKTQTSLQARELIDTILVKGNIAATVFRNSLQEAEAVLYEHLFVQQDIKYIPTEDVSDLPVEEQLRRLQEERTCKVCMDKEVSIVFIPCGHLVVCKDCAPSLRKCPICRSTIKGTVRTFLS

| SMILES | IC50 [1] [nM] | IC50 [2] [nM] |
| --- | --- | --- |
| CN[C@@H](C)C(=O)N[C@H]1CN(C(=O)CCCCCCCCCCC(=O)N2CC[C@H]3CC[C@@H](c4nc5c(-c6ccccc6)cccc5[nH]4)N3C(=O)[C@@H](NC(=O)[C@H](C)NC)C2)CC[C@H]2CC[C@@H](c3nc4c(-c5ccccc5)cccc4[nH]3)N2C1=O | < 50 | – |
| C=CC(C=C)c1cccc2[nH]c([C@@H]3CC[C@@H]4CCN(C(=O)CCCCCCCCCCC(=O)N5CC[C@H]6CC[C@@H](c7nc8c(-c9ccccc9)cccc8[nH]7)N6C(=O)[C@@H](NC(=O)[C@H](C)NC)C5)C[C@H](NC(=O)[C@H](C)NC)C(=O)N43)nc12 | – | < 50 |
